Experimental data reported in patent US8765728B2, “[1,5]-diazocin derivatives” (MelliTech, priority 2009, dated 2014).

What follows are compounds tested on Min6 cell (assay: Insulin secretion response of beta cell line to formula I compounds (insulin ELISA)). Conditions: rank according to % increase versus control at most effective dose.
Assay type: cell-based
Experimental: The secretory responses of beta cell lines to glucose were tested as described in Merglen et al. Endocrinology, (2004) 145(2):667-78.
Briefly, after incubation with compounds from formula I or control vehicle, cells were maintained for 2 hours in glucose-free culture medium. The cells were then washed twice and preincubated for 30 minutes at 37° C. in glucose-free Krebs-Ringer bicarbonate HEPES buffer (KRBH: 135 mM NaCl, 3.6 mM KCl, 5 mM NaHCO3, 0.5 mM NaH2PO4, 0.5 mM MgCl2, 1.5 mM CaCl2, and 10 mM HEPES, pH 7.4). BSA (0.1%) was added as an insulin carrier. Cells were subsequently washed with glucose-free KRBH and then incubated for 30 minutes at 37° C. in KRBH containing different concentrations of glucose. The reaction was stopped by placing the plates on ice; supernatants were collected to determine insulin secretion and cells were used for intracellular insulin content following acid-ethanol extraction. Insulin was measured by ELISA (Linco) according to the manufacturer's instructions.

Compound	Insulin secretion (Min6 cell) Range 1 to 5
COc1ccc2c(c1)CN(C1CC1)C(=O)CCN2CC(O)c1ccc2c(c1)OCCO2 (centres unmarked) [Compound 29, 5-cyclopropyl-1-(2-(2,3-dihydrobenzo[b][1,4]dioxin-6-yl)-2-hydroxyethyl)-8-methoxy-2,3,5,6-tetrahydrobenzo[b][1,5]diazocin-4(1H)-one]	2 (2: 110-120% of control)
COc1cccc(C(O)CN2CCC(=O)N(C3CC3)Cc3cc(OC)ccc32)c1 (centres unmarked) [Compound 30, 5-cyclopropyl-1-(2-hydroxy-2-(3-methoxyphenyl)ethyl)-8-methoxy-2,3,5,6-tetrahydrobenzo[b][1,5]diazocin-4(1H)-one]	1 (1: 90-110% of control)
COc1ccc2c(c1)CN(C1CC1)C(=O)CCN2CC(O)c1cccc(F)c1 (centres unmarked) [Compound 31, 5-cyclopropyl-1-(2-(3-fluorophenyl)-2-hydroxyethyl)-8-methoxy-2,3,5,6-tetrahydrobenzo[b][1,5]diazocin-4(1H)-one]	1 (1: 90-110% of control)
COc1ccc(C(O)CN2CCC(=O)N(C3CC3)Cc3cc(OC)ccc32)cc1 (centres unmarked) [Compound 32, 5-cyclopropyl-1-(2-hydroxy-2-(4-methoxyphenyl)ethyl)-8-methoxy-2,3,5,6-tetrahydrobenzo[b][1,5]diazocin-4(1H)-one]	3 (3: 120-140% of control)
COc1ccc2c(c1)CN(C1CC1)C(=O)CCN2CC(O)c1ccc(OC(F)(F)F)cc1 (centres unmarked) [Compound 33, 5-cyclopropyl-1-(2-hydroxy-2-(4-(trifluoromethoxy)phenyl)ethyl)-8-methoxy-2,3,5,6-tetrahydrobenzo[b][1,5]diazocin-4(1H)-one]	2 (2: 110-120% of control)
COc1ccc2c(c1)CN(C1CC1)C(=O)CCN2CC(O)c1ccc(F)c(F)c1 (centres unmarked) [Compound 34, 5-cyclopropyl-1-(2-(3,4-difluorophenyl)-2-hydroxyethyl)-8-methoxy-2,3,5,6-tetrahydrobenzo[b][1,5]diazocin-4(1H)-one]	1 (1: 90-110% of control)
O=C(CN1CCC(=O)N(C2CC2)Cc2cc(F)ccc21)c1ccccc1 [Compound 35, 5-cyclopropyl-8-fluoro-1-(2-oxo-2-phenylethyl)-2,3,5,6-tetrahydrobenzo[b][1,5]diazocin-4(1H)-one]	1 (1: 90-110% of control)
COc1ccccc1C(=O)CN1CCC(=O)N(C2CC2)Cc2cc(F)ccc21 [Compound 36, 5-cyclopropyl-8-fluoro-1-(2-(2-methoxyphenyl)-2-oxoethyl)-2,3,5,6-tetrahydrobenzo[b][1,5]diazocin-4(1H)-one]	2 (2: 110-120% of control)
COc1cccc(C(=O)CN2CCC(=O)N(C3CC3)Cc3cc(F)ccc32)c1 [Compound 37, 5-cyclopropyl-8-fluoro-1-(2-(3-methoxyphenyl)-2-oxoethyl)-2,3,5,6-tetrahydrobenzo[b][1,5]diazocin-4(1H)-one]	4 (4: 140-170% of control)
COc1ccc(C(=O)CN2CCC(=O)N(C3CC3)Cc3cc(F)ccc32)cc1 [Compound 38, 5-cyclopropyl-8-fluoro-1-(2-(4-methoxyphenyl)-2-oxoethyl)-2,3,5,6-tetrahydrobenzo[b][1,5]diazocin-4(1H)-one]	1 (1: 90-110% of control)
COc1ccc(OC)c(C(=O)CN2CCC(=O)N(C3CC3)Cc3cc(F)ccc32)c1 [Compound 39, 5-cyclopropyl-1-(2-(2,5-dimethoxyphenyl)-2-oxoethyl)-8-fluoro-2,3,5,6-tetrahydrobenzo[b][1,5]diazocin-4(1H)-one]	3 (3: 120-140% of control)
O=C(CN1CCC(=O)N(C2CC2)Cc2cc(F)ccc21)c1ccc(F)cc1 [Compound 40, 5-cyclopropyl-8-fluoro-1-(2-(4-fluorophenyl)-2-oxoethyl)-2,3,5,6-tetrahydrobenzo[b][1,5]diazocin-4(1H)-one]	3 (3: 120-140% of control)
O=C(CN1CCC(=O)N(C2CC2)Cc2cc(F)ccc21)c1cccc(F)c1 [Compound 41, 5-cyclopropyl-8-fluoro-1-(2-(3-fluorophenyl)-2-oxoethyl)-2,3,5,6-tetrahydrobenzo[b][1,5]diazocin-4(1H)-one]	3 (3: 120-140% of control)
O=C(CN1CCC(=O)N(C2CC2)Cc2cc(F)ccc21)c1ccc(OC(F)(F)F)cc1 [Compound 42, 5-cyclopropyl-8-fluoro-1-(2-oxo-2-(4-(trifluoromethoxy)phenyl)ethyl)-2,3,5,6-tetrahydrobenzo[b][1,5]diazocin-4(1H)-one]	1 (1: 90-110% of control)
O=C(CN1CCC(=O)N(C2CC2)Cc2cc(F)ccc21)c1ccc(F)c(F)c1 [Compound 43, 5-cyclopropyl-1-(2-(3,4-difluorophenyl)-2-oxoethyl)-8-fluoro-2,3,5,6-tetrahydrobenzo[b][1,5]diazocin-4(1H)-one]	2 (2: 110-120% of control)
O=C(CN1CCC(=O)N(C2CC2)Cc2cc(F)ccc21)c1ccc(Cl)cc1 [Compound 44, 1-(2-(4-chlorophenyl)-2-oxoethyl)-5-cyclopropyl-8-fluoro-2,3,5,6-tetrahydrobenzo[b][1,5]diazocin-4(1H)-one]	1 (1: 90-110% of control)
COc1ccc(OC)c(C(O)CN2CCC(=O)N(C3CC3)Cc3cc(F)ccc32)c1 (centres unmarked) [Compound 45, 5-cyclopropyl-1-(2-(2,5-dimethoxyphenyl)-2-hydroxyethyl)-8-fluoro-2,3,5,6-tetrahydrobenzo[b][1,5]diazocin-4(1H)-one]	1 (1: 90-110% of control)
O=C1CCN(CC(O)c2ccc(F)cc2)c2ccc(F)cc2CN1C1CC1 (centres unmarked) [Compound 46, 5-cyclopropyl-8-fluoro-1-(2-(4-fluorophenyl)-2-hydroxyethyl)-2,3,5,6-tetrahydrobenzo[b][1,5]diazocin-4(1H)-one]	2 (2: 110-120% of control)
O=C1CCN(CC(O)c2cccc(F)c2)c2ccc(F)cc2CN1C1CC1 (centres unmarked) [Compound 47, 5-cyclopropyl-8-fluoro-1-(2-(3-fluorophenyl)-2-hydroxyethyl)-2,3,5,6-tetrahydrobenzo[b][1,5]diazocin-4(1H)-one]	2 (2: 110-120% of control)
O=C1CCN(CC(O)c2ccc(OC(F)(F)F)cc2)c2ccc(F)cc2CN1C1CC1 (centres unmarked) [Compound 48, 5-cyclopropyl-8-fluoro-1-(2-hydroxy-2-(4-(trifluoromethoxy)phenyl)ethyl)-2,3,5,6-tetrahydrobenzo[b][1,5]diazocin-4(1H)-one]	2 (2: 110-120% of control)
O=C1CCN(CC(O)c2ccc(F)c(F)c2)c2ccc(F)cc2CN1C1CC1 (centres unmarked) [Compound 49, 5-cyclopropyl-1-(2-(3,4-difluorophenyl)-2-hydroxyethyl)-8-fluoro-2,3,5,6-tetrahydrobenzo[b][1,5]diazocin-4(1H)-one]	5 (5: >170% of control)
O=C1CCN(CC(O)c2ccc(Cl)cc2)c2ccc(F)cc2CN1C1CC1 (centres unmarked) [Compound 50, 1-(2-(4-chlorophenyl)-2-hydroxyethyl)-5-cyclopropyl-8-fluoro-2,3,5,6-tetrahydrobenzo[b][1,5]diazocin-4(1H)-one]	2 (2: 110-120% of control)
COc1ccc(OCC(O)CN2CCC(=O)N(C3CC3)Cc3cc(OC)ccc32)cc1 (centres unmarked) [Compound 51, 5-cyclopropyl-1-(2-hydroxy-3-(4-methoxyphenoxy)propyl)-8-methoxy-2,3,5,6-tetrahydrobenzo[b][1,5]diazocin-4(1H)-one]	2 (2: 110-120% of control)
O=C1CCN(CC(O)COc2ccccc2)c2ccc(F)cc2CN1C1CC1 (centres unmarked) [Compound 52, 5-cyclopropyl-8-fluoro-1-(2-hydroxy-3-phenoxypropyl)-2,3,5,6-tetrahydrobenzo[b][1,5]diazocin-4(1H)-one]	1 (1: 90-110% of control)
COc1ccc(OCC(O)CN2CCC(=O)N(C3CC3)Cc3cc(F)ccc32)cc1 (centres unmarked) [Compound 53, 5-cyclopropyl-8-fluoro-1-(2-hydroxy-3-(4-methoxyphenoxy)propyl)-2,3,5,6-tetrahydrobenzo[b][1,5]diazocin-4(1H)-one]	1 (1: 90-110% of control)
COc1ccc2c(c1)CNC(=O)CCN2 [Compound 54, 8-methoxy-2,3,5,6-tetrahydrobenzo[b][1,5]diazocin-4(1H)-one]	1 (1: 90-110% of control)
O=C(CN1CCC(=O)N(C2CC2)Cc2cc(F)ccc21)c1ccc2c(c1)OCCO2 [Compound 55, 5-cyclopropyl-1-(2-(2,3-dihydrobenzo[b][1,4]dioxin-6-yl)-2-oxoethyl)-8-fluoro-2,3,5,6-tetrahydrobenzo[b][1,5]diazocin-4(1H)-one]	2 (2: 110-120% of control)
O=C(CN1CCC(=O)N(C2CC2)Cc2cc(F)ccc21)c1ccc(N2CCCC2)cc1 [Compound 56, 5-cyclopropyl-8-fluoro-1-(2-oxo-2-(4-(pyrrolidin-1-yl)phenyl)ethyl)-2,3,5,6-tetrahydrobenzo[b][1,5]diazocin-4(1H)-one]	2 (2: 110-120% of control)
COc1ccccc1C(O)CN1CCC(=O)N(C2CC2)Cc2cc(F)ccc21 (centres unmarked) [Compound 57, 5-cyclopropyl-8-fluoro-1-(2-hydroxy-2-(2-methoxyphenyl)ethyl)-2,3,5,6-tetrahydrobenzo[b][1,5]diazocin-4(1H)-one]	2 (2: 110-120% of control)
